From patent publication US10408843B2, “Compositions and methods for detecting S-nitrosylation and S-sulfinylation” (The Regents of the University of Michigan, priority 2013, dated 2019)

What was measured:
Recombinant human GAPDH = molecular target: T1, Recombinant human GAPDH (Homo sapiens, UniProt P04406); test: Labeling of recombinant GAPDH (in-gel fluorescence, LC-MS); type: biochemical; conditions: biotin-thiosulfonate modified tryptic peptide
T1 construct: 6His; made in house; host or cells: E. coli BL21
T1 sequence (P04406 whole entry): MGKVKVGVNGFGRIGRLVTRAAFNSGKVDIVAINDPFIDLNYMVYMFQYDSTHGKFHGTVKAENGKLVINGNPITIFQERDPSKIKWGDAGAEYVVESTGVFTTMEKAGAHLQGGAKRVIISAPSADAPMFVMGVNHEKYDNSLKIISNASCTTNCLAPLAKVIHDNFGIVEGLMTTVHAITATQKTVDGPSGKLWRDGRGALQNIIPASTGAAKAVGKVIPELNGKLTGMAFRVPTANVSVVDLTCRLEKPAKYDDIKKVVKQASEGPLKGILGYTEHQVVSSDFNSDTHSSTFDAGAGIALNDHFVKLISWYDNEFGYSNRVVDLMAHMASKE
Description: FIG. 14. Profiling fluorescein-SO2H reactivity and selectivity on S-nitrosylated GAPDH. Recombinant human GAPDH was resuspended in 6 M urea/PBS, treated with 50 mM iodoacetamide for 30 minutes, and mixed with dimedone, ascorbate, peroxide or NO donor (5 minutes). Fluorescein-SO2H (500 μM) was then added to the GAPDH sample for 45 minutes. S-nitrosylated human GAPDH labeling increases upon incubation with the NO donor MAHMA-NONOate, and decreases following treatment with ascorbate. […] Fluorescein-SO2H labeling is unaffected by pre-incubation with peroxide or dimedone.
FIG. 15. Biotin-SO2H reacts with human GAPDH and forms a thiosulfonate. Recombinant human GADPH was labeled with biotin-SO2H for site-specific analysis of S-nitrosylation by high-resolution mass spectrometry.
Given the efficient and selective conjugation of sulfinic acids and nitrosothiols, recombinant human GAPDH were next purified for targeted analysis of S-sulfinylation with biotin-SO2H. […] Biotin-SO2H-labeled GAPDH protein was digested with trypsin and analyzed by high-resolution mass spectrometry, identifying a biotin-thiosulfonate modified peptide encompassing the GAPDH catalytic cysteine (FIG. 15). […] These studies confirm direct detection of native of S-sulfinylation by sulfinic acid probes for mass spectrometry analysis.
Purified human GAPDH was diluted to 0.2 mg/mL in phosphate buffered saline (pH 7.3), and treated with 20 mM iodoacetamide for 30 minutes. Next, the sample was treated with 100 μM biotin-SO2H. Purified human DJ-1 was diluted to 0.2 mg/mL in PBS, and incubated with 20 mM iodoacetamide to alkylated free thiols. Next, the sample was treated with 2 mM hydrogen peroxide for 20 minutes to promote Cys106 sulfinic acid formation. […] Eluted peptides were analyzed using a Waters Synapt G2-S HDMS time-of-flight mass spectrometer in positive mode. […] MS data was searched using Waters Protein Lynx Global Server v3.0 using the exact mass calculated for the cysteine thiosulfonate modification.

293T cell lysates = test: SILAC quantitative mass spectrometry of biotin-SO2H enrichment; type: biochemical, human; conditions: quantified in ≥3 replicates, ≥3 quantified peptides; 400 μM probe
Description: FIG. 16. Quantitative analysis of biotin-SO2H enrichment in 293T cell lysates. Samples were prepared in two sets, one with biotin-SO2H in the “Light” matched with biotin-SO3H in the “Heavy” (N=2), and the other in reverse (N=2). Each was ran as two technical replicated and SILAC ratios (biotin-SO2H/biotin-SO3H) were combined across experiments. “Directions Detected” describes the set of SILAC samples where the protein was quantified. FORWARD refers to biotin-SO2H (light)/biotin-SO3H (heavy), and REVERSE is the opposite direction, biotin-SO2H (heavy)/biotin-SO3H (light). […] Label-free quantification was performed using the Top3 method from the biotin-SO2H labeled pair.
Next, biotin-SO2H labeling was combined with stable-isotope labeling with amino acids in cell culture (SILAC) for quantitative mass spectrometry annotation of endogenous S-sulfinylation in mammalian cells. […] Peptides were analyzed using data-independent acquisition methods in combination with ion mobility separation (HDMS^E) and mobility-dependent collision energy assignment for enhanced fragmentation (see, e.g., Distler, U. et al. Nat Methods (2013)). Through a combination of 4 biological replicates, each with 2 technical replicates, a total of 992 proteins were identified with SILAC ratios >5 (biotin-SO2H/biotin-SO3H), quantified in ≥3 replicates, and represented by ≥3 quantified peptides (FIG. 16). […]

modified cysteine of GAPDH identified by MS/MS (Recombinant human GAPDH): Cys156
SMILES: O=C(CCCC[C@@H]1SC[C@@H]2NC(=O)N[C@@H]21)NCCS(=O)O [biotin-SO2H, 2-(5-((3aS,4S,6aR)-2-oxohexahydro-1H-thieno[3,4-d]imidazol-4-yl)pentanamido)ethanesulfinic Acid]
proteins identified with SILAC ratios >5 (biotin-SO2H/biotin-SO3H) (293T cell lysates): 992 proteins
